According to patent US10316313B2, “Mesoporous catalysts of magnetic nanoparticles and free-radical-producing enzymes, and methods of use” (Cornell University, priority 2011, dated 2019):
“Also recorded” adds a separate entry of the source.

Assays:
[1] = target: T1, Horseradish Peroxidase (HRP, E.C. 1.11.1.7, type VI-A) entrapped in M25 magnetite nanoparticle clusters (M25-BNC) (Armoracia rusticana, UniProt P00433); assay: Phenol/AAP assay, H2O2 substrate inhibition model, M25-BNC; assay type: biochemical
T1 construct: purchased
T1 sequence (P00433 31-338 limits assumed): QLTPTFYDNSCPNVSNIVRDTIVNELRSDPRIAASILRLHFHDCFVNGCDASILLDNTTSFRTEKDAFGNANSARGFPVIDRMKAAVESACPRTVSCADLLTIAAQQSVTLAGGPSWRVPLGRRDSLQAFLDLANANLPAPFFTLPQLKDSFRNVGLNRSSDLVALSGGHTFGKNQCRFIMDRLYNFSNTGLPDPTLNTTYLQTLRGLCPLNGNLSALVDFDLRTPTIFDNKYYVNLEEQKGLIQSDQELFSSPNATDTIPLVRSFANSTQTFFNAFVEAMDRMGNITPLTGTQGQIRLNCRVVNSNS
Text: (§1) The enzymes used in this study were Horseradish Peroxidase (HRP, E.C. 1.11.1.7, type VI-A), Lignin Peroxidase (LiP, E.C. 1.11.1.14), Manganese Peroxidase (MnP; E.C. 1.11.1.13) Versatile Peroxidase (syn. hybrid peroxidase, manganese-lignin peroxidase: VeP EC 1.11.1.16), and laccase. All enzymes used herein were obtained from commercial sources. […] High activity forms were obtained by further purification by FPLC (AKTA Explorer, GE Bioscience) using an anionic exchange column (Resource Q, GE Bioscience). Laccase was used without further purification. Protein signal was monitored at 280 nm and the heme signal at 405 nm. For each enzyme, the fractions with a RZ above 1 were pulled together, concentrated and aliquoted. Phenol, homovanillic acid, veratryl alcohol, methoxylphenol, 4-aminoantipyrine (AAP), glucose (the foregoing being at 98% purity), sodium phosphate buffer (PBS) of pH 7.4 and 67 mM, magnetite microsphere powder, manganese sulfate, hydrogen peroxide, FeCl3.6H2O, and FeCl2.4H2O, O-phosphoethydiamine, gold tetrachlorohydrate, and malonate and tartrate disodium salts were obtained from commercial sources.
(§2) Magnetite nanoparticles were synthesized by co-precipitation of Fe^2+ and Fe^3+ under alkaline conditions in a bubbling nitrogen atmosphere at 25° C. (M25) or 90° C. (M90). An acidic solution (25 ml) of the iron salts (2 g of FeCl2.4H2O and 5.2 g of FeCl3.6H2O) was added dropwise to NaOH (250 ml, 1.5 M) under constant stirring. Non-oxidizing conditions were achieved by bubbling all solutions with nitrogen for 15 minutes prior to reaction. The instantaneous black precipitation of Fe3O4 was captured with a neodymium magnet, washed, and neutralized, and kept in distilled water until further use.
(§3) All BNCs were formed with either M90 or M25 magnetite nanoparticles, gold-coated or not. The BNCs were formed with either Horseradish peroxidase, Lignin Peroxidase, Manganese Peroxidase or Versatile Peroxidase. Typical BNC synthesis required the MNPs to be initially monodispersed (i.e., individualized and non-aggregated MNPs). MNPs were sonicated in an ultrasonic bath for 20 minutes at room temperature and used immediately to form the BNCs. In preliminary experiments, the effects of buffer composition, buffer strength, and incubation time were investigated to measure their influence on the formation of the BNCs and the activity of the enzymes. […]
(§4) The peroxidase activity of native HRP and BNC was monitored using the chromogenic phenol/AAP assay that generates phenoxy radicals that readily react with […] to form the pink-colored quinoneimine dye. An automated plate-reader (Synergy 4, Biotek) with injection capabilities and temperature-controlled chamber was used to record the absorbance of the solution at 510 nm in 96-well plates (4 replicates) for 30 minutes. […]

[2] = target: T2, Horseradish Peroxidase (HRP, E.C. 1.11.1.7, type VI-A) entrapped in M90 magnetite nanoparticle clusters (M90-BNC) (Armoracia rusticana, UniProt P00433); assay: Phenol/AAP assay, H2O2 substrate inhibition model, M90-BNC; assay type: biochemical
T2 construct: purchased
T2 sequence (P00433 31-338 limits assumed): T1 sequence (P00433 31-338 limits assumed)
Text: as §1, §2, §3, §4

[3] = compared to the free enzyme at the same concentration

Compound: OO [H2O2, hydrogen peroxide]
- Ki (H2O2 substrate inhibition constant) ([1]; compared to free HRP): in the same range than the free HRP; also recorded: in the same range, if not lower, than for the free enzymes
- Km ([1]; compared to free HRP): higher Km; also recorded: increased in the case of BNCs formed with M25
- Vmax [1, 3]: two to three times greater than the free enzyme; also recorded: increased in the case of BNCs formed with M25 compared to the Vmax of the free enzymes
- kcat [1, 3]: two to three times greater than the free enzyme; also recorded: drastically increased in the case of BNCs formed with M25 compared to the free enzyme
- Vmax ([2]; compared to free HRP): similar; also recorded: No difference in Vmax
- kcat ([2]; compared to free HRP): also increased for lower concentrations of enzymes
- Ki (H2O2 substrate inhibition constant) ([2]; in words, compared to free HRP): drastically increased
- Ki (H2O2 substrate inhibition constant), times greater than the free HRP ([2]; ratio to free HRP): about 10 times
